According to patent US20230041065A1, “METHODS FOR GENERATING HEMATOPOIETIC STEM CELLS” (The Brigham and Women`s Hospital, Inc., priority 2019, published 2023):
Where no end group is shown, it is not given here.

How the values were obtained:
zebrafish embryos = test: HSPC marker expression in zebrafish embryos (whole mount in situ hybridization); assay type: in vivo
Method: (§1) Zebrafish embryos were treated with the following chemical modulators in E3 fish media: 100 uM L-NAME (Fisher Scientific), 50 uM Digitoxigenin (Sigma), 25-50 uM Yoda1 (Cayman Chemical), 1 uM Nanaomycin (Nana; Fisher Scientific), 100 uM Gadolinium chloride (GdCl3; Sigma), 5-10 uM 4α-phorbol 12, 13-didecanaote (4Apdd; Sigma), or GSK205 (10 uM).
Whole mount in situ hybridizations was performed as previously described.

E11.5 AGM cells = test: Hematopoietic CFU and FACS assays on E11.5 AGM cells; assay type: cell-based, mouse; settings: for GEMM formation: 50 μM
Method: Pulsating blood vessels like conditions were stimulated in vitro using Flexcell FX-4000 machine. To analyze roles of pharmacological targets in regulating the endothelial-to-HSC transition, mouse embryo-derived AGM or whole mouse embryo were exposed ex vivo with biomechanical stretching, chemicals, or drugs. Next, hematopoietic colony formation assays were performed by incubating mouse AGM-derived cells in StemCell M3434 media for seven days. Serial transplantation of AGM-derived HSCs in lethally irradiated SJL mice were performed. The stem cell frequency upon biomechanical stretching was analyzed using a limiting dilution assay. To characterize properties of AGM-HSC-derived blood cells in primary transplants, percentage chimerism and reconstitution was measured using FACS, globin transcripts were analyzed using quantitative reverse transcriptase-PCR, myeloperoxidase amount was measured using PicoKine ELISA kit, TCR-β rearrangement was analyzed using PCR for TCR-β locus, pre-immune IG detection was analyzed using Thermo-Fisher Mouse Ig Isotyping kit, and delayed-type hypersensitivity was analyzed by injecting sheep RBC (Rockland Immunochemicals) in the footpad of pre-sensitized mice. E11.5 AGM were harvested from C57BL6/J Cd45.2 mouse embryos, and a single cell suspension of a three-embryo equivalent of cells was seeded on each well of a BioFlex six-well culture plate ([…]). We cultured cells overnight with the application of cyclic strain (Flexcell® FX4000TM Tension System) and/or treatment with chemical modulators (2-100 μM Yoda1, 1 μM Nanaomycin, 100 μM Gdcl3, 1 uM GsMT×4, 5-20 μM 4αPDD, 10 uM GSK205). Next, harvested cells were used to perform transplant, fluorescence-activated cell sorting (FACS) analysis, and colony-forming unit (CFU) assays. For CFU assays, cells from AGM explant or ex vivo were plated in MethoCult GF M3434 media (StemCell Technologies). Seven days after seeding, we analyzed their capacity to make granulocyte, erythroid, macrophage, megakaryocyte (GEMM), granulocyte macrophage (GM), granulocyte (G), macrophage (M), and erythroid (E) colonies.

[1] = tested on: cd41:eGFP+ HSCs emerging from flk1:mCherry+ endothelial cells; test: Time-lapse confocal imaging of cd41:eGFP+ HSCs emerging from flk1:mCherry+ endothelial cells in transgenic embryos; assay type: in vivo, zebrafish; settings: embryos concurrently treated with or without Yoda1
Method: Mice were purchased Cd45.2 (C57BL6/J) and Cd45.1 (SJL) from The Jackson Laboratory and zebrafish morpholinos from GeneTools. Microangiography was performed by injecting fluorescent-labeled dextran dye in the atrium of zebrafish heart and its passage was recorded using live imaging. Immunostaining of zebrafish heart and mouse AGM were analyzed using an inverted fluorescent microscope. Cardiac tamponade, heart rate, and pulse frequency were analyzed in zebrafish embryos using bright field imaging or time-lapse confocal microscopy. The movement of red blood cells in blood vessels was analyzed as well as the endothelial-to-HSC transition in zebrafish transgenic embryos using time-lapse confocal imaging.
as §1
cd41:eGFP were crossed with flk1:mCherry zebrafish and flk1:mCherry with lcr:eGFP zebrafish and injected morpholino in their transgenic embryos. […] The relative movement of lcr:eGFP^+ red blood cells was analyzed in the context of flk1:mCherry^+ endothelium. We performed image analysis using Imaris (Bitplane) software.

COC(=O)[C@@H](N)CCCNC(=N)N[N+](=O)[O-] [L-NAME]
HSPC formation (zebrafish embryos; cdh5-MO embryos): does not impact HSPC formation in cdh5-MO embryos
HSPC formation (zebrafish embryos; control embryos): attenuates HSPC formation in control embryos

Cc1oc(-c2cccs2)cc1C(=O)O [Jedi2]
GEMM formation (E11.5 AGM cells): enhances GEMM formation

GsMtX4: pharmacological inhibition of Piezo1 (GCLEFWWKCNPNDDKCCRPKLKCSKLFKLCNFSF; ends and bridges not checked; cysteine pairing not given here; UniProt Q7YT39 47-80, looked up)
hematopoietic colony formation induced by cyclic strain (E11.5 AGM cells; cyclic strain plus Piezo1 inhibitor): attenuates the inductive impact of cyclic strain on the endothelial-to-HSC transition

[Cl][Gd]([Cl])[Cl] [GdCl3, Gadolinium chloride]
HSPC expression (zebrafish embryos; zebrafish embryos): attenuated HSPC expression in zebrafish embryos to the level of sih-MO embryos
formation of multipotent hematopoietic progenitors potentiated by 10% cyclic strain (E11.5 AGM cells; 10% cyclic strain plus stretch-activated receptor inhibitor): attenuated

CC1OC(CC(=O)O)CC2=C1C(=O)c1c(O)cccc1C2=O (centres unmarked) [Nanaomycin]
HSPC marker expression (zebrafish embryos; control and cdh5-MO embryos): attenuated HSPC marker expression in control and cdh5-MO embryos
hematopoietic colony formation stimulated by cyclic strain or Yoda1 (E11.5 AGM cells; cyclic strain or Yoda1 in the presence of Nanaomycin): attenuates the endothelial-to-HSC transition stimulated by circumferential stretch or Piezo1 activation
phenotype of hematopoietic cells after treatment (E11.5 AGM cells; stretch- or Piezo1 activation-treated AGM cells): reverts hematopoietic cells into phenotypic endothelial cells
Piezo1 activation (Yoda1)-mediated increase in HSC formation [1]: attenuated the Piezo1 activation-mediated increase in HSC formation

Cc1oc(-c2ccccc2)cc1C(=O)O [Jedi1]
GEMM formation (E11.5 AGM cells): enhances GEMM formation
